US20060216295A1, “Methods of identifying therapeutic targets for the treatment of vulvovaginal atrophy” (Wyeth, priority 2005, published 2006)
Like-named read-outs stand apart in the source and are kept apart here.

Assays:
HIF1α transcription = settings: cited from earlier work
vaginal epithelium [1] = format: in vivo, rat
Procedure: FIG. 4 represents H&E stained cross-sections of rat vagina after 5 days of intravaginal treatment with 100 nM betacellulin in 2% carbomer vehicle.
These histologic changes are the hallmark of a vaginal estrogenic response. Tables 2 and 3 detail the studies performed with mersalyl and betacellulin. The body of the table indicates the number of positive histological changes over the number of samples evaluated.
Table 4 includes the studies performed with the PHD/FIH non-specific inhibitor DMOG, whereas Table 5 is the studies performed with 2,4-DPD.
Table 6 includes the studies performed with the FIH specific inhibitor 3,4-dihydroxybenzoate (3,4-DHB), whereas Table 7 outlines the studies performed with N-oxalyl-D-alanine (NODA).

vaginal epithelium [2] = format: in vivo, rat; settings: intravaginal; 50 nM 17β-estradiol, 10 nM recombinant mouse betacellulin, 1 μM Mersalyl; 2% carbomer vehicle

## COC(CNC(=O)c1ccccc1OCC(=O)O)[CH2][Hg][OH] (centres unmarked) [Mersalyl, mersalyl]
HIF1α transcription
  upregulation of HIF1α transcription: upregulate HIF1α transcription
Vaginal epithelium [1]; Mersalyl dose 0.1 μM intravaginal, Study 2
  number of positive histological changes over the number of samples evaluated: 2/4
Vaginal epithelium [1]; Mersalyl dose 0.1 μM intravaginal, Study 3
  number of positive histological changes over the number of samples evaluated: 4/4
Vaginal epithelium [1]; Mersalyl dose 0.1 μM intravaginal, Study 4
  number of positive histological changes over the number of samples evaluated: 4/4
Vaginal epithelium [1]; Mersalyl dose 1 μM intravaginal, Study 1
  number of positive histological changes over the number of samples evaluated: 3/3
Vaginal epithelium [1]; Mersalyl dose 1 μM intravaginal, Study 2
  number of positive histological changes over the number of samples evaluated: 4/4/
Vaginal epithelium [1]; Mersalyl dose 1 μM intravaginal, Study 3
  number of positive histological changes over the number of samples evaluated: 2/3
Vaginal epithelium [1]; Mersalyl dose 1 μM intravaginal, Study 4
  number of positive histological changes over the number of samples evaluated: 4/4/
Vaginal epithelium [1]; Mersalyl dose 10 μM intravaginal, Study 1
  number of positive histological changes over the number of samples evaluated: 0/3
Vaginal epithelium [1]; Mersalyl dose 10 μM intravaginal, Study 2
  number of positive histological changes over the number of samples evaluated: 0/4
Vaginal epithelium [1]; Mersalyl dose 100 μM intravaginal, Study 1
  number of positive histological changes over the number of samples evaluated: 0/3
Vaginal epithelium [1]; ovariectomized rats
  effect on the rat vaginal epithelium, in words: expansion of the vaginal epithelium in a manner similar to treatment with 17β-estradiol
Vaginal epithelium [1]; rats, intravaginal dosing, Example 2
  histological change of the vaginal epithelial layer compared to vehicle: clear thickening and differentiation of the vaginal epithelial layer
Vaginal epithelium [2]
  histology of rat vagina (H&E stained cross-sections) compared to vehicle, FIG. 1: positive effect
